Laboratory results reported in US11932595B2, “VDR-silent vitamin D derivative as inhibitors of SREBP and pharmaceutical use thereof” (KYOTO UNIVERSITY, priority 2020, dated 2024).
“Also recorded” adds a separate entry of the source.

Target: T1, endogenous SREBP-2 and SCAP (Cricetulus griseus, UniProt P97260)
T1 construct: Western blot analysis of endogenous SREBP-2 and SCAP; endogenous in cells; host or cells: CHO-K1
T1 sequence (P97260 1-1276): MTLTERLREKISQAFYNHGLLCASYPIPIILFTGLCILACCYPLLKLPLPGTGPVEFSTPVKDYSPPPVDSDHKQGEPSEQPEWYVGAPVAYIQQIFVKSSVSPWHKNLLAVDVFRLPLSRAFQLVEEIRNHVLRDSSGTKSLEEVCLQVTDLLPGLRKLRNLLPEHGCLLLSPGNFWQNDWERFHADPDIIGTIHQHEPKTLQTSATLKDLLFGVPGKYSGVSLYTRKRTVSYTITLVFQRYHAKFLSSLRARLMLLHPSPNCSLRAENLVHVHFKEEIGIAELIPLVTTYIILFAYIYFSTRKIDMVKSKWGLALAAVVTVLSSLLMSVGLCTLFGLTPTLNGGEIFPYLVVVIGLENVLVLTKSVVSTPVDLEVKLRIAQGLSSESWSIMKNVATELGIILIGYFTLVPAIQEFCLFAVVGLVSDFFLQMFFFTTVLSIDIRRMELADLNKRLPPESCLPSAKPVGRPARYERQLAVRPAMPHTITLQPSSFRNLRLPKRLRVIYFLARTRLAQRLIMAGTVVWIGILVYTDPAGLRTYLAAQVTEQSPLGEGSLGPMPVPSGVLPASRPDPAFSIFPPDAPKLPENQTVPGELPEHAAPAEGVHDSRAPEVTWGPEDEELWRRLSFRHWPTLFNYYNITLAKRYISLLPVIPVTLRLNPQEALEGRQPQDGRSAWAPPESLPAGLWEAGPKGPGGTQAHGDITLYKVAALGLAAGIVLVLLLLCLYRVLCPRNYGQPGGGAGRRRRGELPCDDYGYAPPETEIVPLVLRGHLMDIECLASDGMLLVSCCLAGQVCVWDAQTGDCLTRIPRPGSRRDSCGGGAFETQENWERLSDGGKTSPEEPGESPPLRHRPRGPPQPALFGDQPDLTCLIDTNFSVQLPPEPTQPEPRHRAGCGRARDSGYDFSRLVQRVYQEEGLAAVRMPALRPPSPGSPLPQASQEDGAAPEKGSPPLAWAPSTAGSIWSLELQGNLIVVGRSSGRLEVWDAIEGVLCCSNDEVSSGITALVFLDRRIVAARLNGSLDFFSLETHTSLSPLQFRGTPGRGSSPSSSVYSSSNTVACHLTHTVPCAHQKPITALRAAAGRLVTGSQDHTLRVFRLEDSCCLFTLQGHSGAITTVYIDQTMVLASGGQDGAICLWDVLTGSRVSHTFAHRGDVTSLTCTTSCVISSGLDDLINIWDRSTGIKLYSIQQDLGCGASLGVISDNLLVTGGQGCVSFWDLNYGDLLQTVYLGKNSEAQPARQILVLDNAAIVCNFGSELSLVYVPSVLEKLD
T1 sequence (Q60429 1-1139 partner): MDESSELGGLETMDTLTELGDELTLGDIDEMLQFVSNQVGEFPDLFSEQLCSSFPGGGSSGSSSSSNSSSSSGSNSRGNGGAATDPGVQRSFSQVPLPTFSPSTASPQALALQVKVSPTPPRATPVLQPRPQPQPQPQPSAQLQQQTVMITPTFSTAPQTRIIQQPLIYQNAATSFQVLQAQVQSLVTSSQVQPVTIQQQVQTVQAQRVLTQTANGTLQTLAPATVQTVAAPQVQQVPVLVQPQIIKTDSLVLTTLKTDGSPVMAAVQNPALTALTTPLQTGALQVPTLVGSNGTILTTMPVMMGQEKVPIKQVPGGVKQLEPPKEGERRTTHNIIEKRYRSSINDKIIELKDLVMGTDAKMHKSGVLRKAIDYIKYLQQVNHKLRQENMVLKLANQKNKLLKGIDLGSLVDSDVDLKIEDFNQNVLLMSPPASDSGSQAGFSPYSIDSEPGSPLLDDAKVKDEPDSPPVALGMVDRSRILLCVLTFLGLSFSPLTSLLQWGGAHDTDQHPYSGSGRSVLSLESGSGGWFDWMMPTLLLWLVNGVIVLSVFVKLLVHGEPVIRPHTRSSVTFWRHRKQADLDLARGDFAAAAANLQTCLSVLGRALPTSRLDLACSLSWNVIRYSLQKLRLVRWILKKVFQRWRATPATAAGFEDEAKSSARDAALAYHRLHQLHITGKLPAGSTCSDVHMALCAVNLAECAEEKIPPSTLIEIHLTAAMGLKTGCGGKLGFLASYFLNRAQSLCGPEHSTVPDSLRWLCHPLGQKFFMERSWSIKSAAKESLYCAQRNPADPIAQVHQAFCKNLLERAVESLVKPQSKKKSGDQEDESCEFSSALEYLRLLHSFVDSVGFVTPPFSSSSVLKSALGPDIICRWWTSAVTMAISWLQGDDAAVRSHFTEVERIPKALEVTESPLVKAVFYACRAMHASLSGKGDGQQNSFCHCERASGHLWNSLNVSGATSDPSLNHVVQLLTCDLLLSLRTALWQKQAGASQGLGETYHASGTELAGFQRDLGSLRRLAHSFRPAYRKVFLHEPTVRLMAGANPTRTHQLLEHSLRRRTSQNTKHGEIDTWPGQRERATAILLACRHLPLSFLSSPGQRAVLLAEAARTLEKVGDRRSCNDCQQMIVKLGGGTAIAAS
Experiment: Western blot analysis of endogenous SREBP-2 and SCAP in CHO-K1 cells
Assay type: cell-based
Details: FIG. 6B; for protein levels of precursor and mature forms of SREBP-2 and of SCAP: CHO-K1 cells, lipid-free medium, 24 h
Method: 25(OH)D3 and KK-052 decreased the protein levels of both precursor and mature forms of SREBP-2, as well as SCAP. (CHO-K1 cells were treated with the compound in a lipid-free medium for 24 h); (C) Western blot analysis of SCAP: CHO-K1 cells expressing FLAG-tagged SCAP were treated with the compound in a lipid-free medium for 24 h and immunoblots were performed with an anti-FLAG antibody.
The effects of KK-052 (50) on SREBP and SCAP by gene reporter assay and Western blot analysis were verified. […] Overall, the results were consistent with the effects of KK-052 in vivo.

SMILES | protein levels of precursor and mature forms of SREBP-2 and of SCAP | effect on endogenous SREBP and SCAP levels at 1 μM (1 μM concentration) | protein levels of precursor and mature forms of SREBP-2 and of SCAP (listed as KK-052)
C=C1CC[C@H](O)C/C1=C/C=C1\CCC[C@]2(C)[C@@H]([C@H](C)CCCC(C)(C)O)CC[C@@H]12 [25(OH)D3, 25-hydroxyvitamin D3, reference compound] | decreased | – | –
C[C@H](CCC(F)(F)C(C)(C)O)[C@H]1CC[C@H]2/C(=C/Cn3nnnc3-c3ccccc3)CCC[C@]12C [Compound 50, (R)-3,3-Difluoro-2-methyl-6-{(1R,3aS,7aR,E)-7a-methyl-4-[2-(5-phenyl-1H-tetrazol-1-yl)ethylidene]octahydro-1H-inden-1-yl}heptan-2-ol] | – | less evident | decreased; also recorded: decreasing the level
